Measured values taken from patent US8247211B2, “Glycopeptide antibiotics” (American Cyanamid Company, priority 2001, dated 2012).
Values after ≈ are worked out from the molar mass of the structure shown. Values belong to the compound of their own block, whether it stands above or below them. Numbered stars: 1 amine (or outer) side, 2 acyl side, 3 side chain; on linkers, the order of the positions; unused ones are H or OH. Square brackets hold non-standard residues; d marks the D form. Peptide text beside a SMILES is read from it. * marks the point of attachment. ξ: configuration not given here. X1 = N=C1NCC(C(O)C(N[*:1])C(=O)[*:2])N1C1OC(CO)C(O)C(O)C1O; ξEnduracididine(βξ-OH,4'ξ) = N=C1NCC(C(O)C(N)C(=O)O)N1; X2 = OCC1OC(OC2C(CO)OC(*)C(O)C2O)C(O)C(O)C1O; X5 = N=C1NCC(C(O)[C@@H](N[*:1])C(=O)[*:2])N1; X4 = N=C1NCC(C(O)[C@H](N[*:1])C(=O)[*:2])N1; Diphenylacetyl = O=C(C(c1ccccc1)c1ccccc1)*; ξPhe(βξ-Me) = CC(c1ccccc1)C(N)C(=O)O; Cha = N[C@@H](CC1CCCCC1)C(=O)O; dCha = N[C@H](CC1CCCCC1)C(=O)O

Key:
Assay in all cases: In vitro antibacterial evaluation: minimum inhibitory concentration (MIC), broth dilution method
Format in all cases: cell-based
Staphylococcus sp. = conditions: for MIC Coagulase Negative Staphylococcus (ID-3941): strain ID-3941
Protocol: (§1) The minimum inhibitory concentration (MIC), the lowest concentration of the antibiotic which inhibits growth of the test organism, is determined by the broth dilution method using Muller-Hinton II […] (Baltimore Biological Laboratories) following the recommendations of the National Committee for Clinical Laboratory Standards [Methods for dilution antimicrobial susceptibility tests for bacteria that grow aerobically, approved standard M7-A2, National Committee for Clinical Laboratory Standards, Villanova, Pa].
(§2) An inoculum level of 5×10^5 CFU/mL, and a range of antibiotic concentrations (64-0.06 μg/mL) is used. […] The test organisms include a spectrum of Gram-positive bacteria comprised of Staphylococcus sp., Streptococcus sp. and Enterococcus sp. These organisms include recent clinical isolates that are resistant to methicillin, penicillin and/or vancomycin.

Enterococcus sp. = tested on: Enterococcus sp.
Protocol: as §1, §2

Streptococcus sp. = tested on: Streptococcus sp.
Protocol: as §1, §2

[1] = strain GC 4549, broth dilution, 18 hours at 35° C.
[2] = broth dilution, 18 hours at 35° C.
[3] = broth dilution, inoculum 5×10^5 CFU/mL, 18 hours at 35° C.

Compound: Cc1cccc(Oc2ccc(-c3nc4cc(C[C@@H]5NC(=O)[C@H](C(C)c6ccccc6)NC(=O)CNC(=O)[C@H](CO)NC(=O)[C@H](C(O)C6CNC(=N)N6)NC(=O)[C@H](C(O)C6CNC(=N)N6)NC5=O)ccc4o3)cc2)c1 (stereo partly drawn) [Example 41, Cyclo[3-[2-[4-(3-methylphenoxy)phenyl]benzoxazol-5-yl]alanyl-3-(2-iminoimidazolidin-4-yl)-seryl-3-(2-iminoimidazolidin-4-yl)serylserylglycyl-β-methylphenylalanyl]]
MIC Staphylococcus haemolyticus (GC 4546) (Staphylococcus sp.; strain GC 4546, broth dilution, 18 hours at 35° C.): 64 µg/mL (≈ 63 µM)
MIC Coagulase Negative Staphylococcus (GC 4547) (Staphylococcus sp.; strain GC 4547, broth dilution, 18 hours at 35° C.): 64 µg/mL (≈ 63 µM)
MIC Coagulase Negative Staphylococcus (GC 4548) (Staphylococcus sp.; strain GC 4548, broth dilution, 18 hours at 35° C.): >64 µg/mL
MIC Coagulase Negative Staphylococcus (GC 4549) (Staphylococcus sp.; [1]): 32 µg/mL (≈ 31.5 µM)
MIC Coagulase Negative Staphylococcus (GC 4551) (Staphylococcus sp.; strain GC 4551, broth dilution, 18 hours at 35° C.): 64 µg/mL (≈ 63 µM)
MIC Enterococcus faecalis (GC 6189) (Enterococcus sp.; Enterococcus faecalis (GC 6189), broth dilution, 18 hours at 35° C.): >64 µg/mL

Compound: CC(C1CCCCC1)C1NC(=O)CNC(=O)C(CO)NC(=O)C(C(O)C2CNC(=N)N2C2OC(CO)C(O)C(O)C2O)NC(=O)C(C(O)C2CNC(=N)N2)NC(=O)C(CC2CCC(OC3OC(CO)C(OC4OC(CO)C(O)C(O)C4O)C(O)C3O)CC2)NC1=O (centres unmarked) [Example 53a, Cyclo[3-[4-[(4-O-hexopyranosylhexopyranosyl)oxy]cyclohexyl]alanyl-3-(2-iminoimidazolidin-4-yl)seryl-3-(3-hexopyranosyl-2-iminoimidazolidin-4-yl)serylserylglycyl-3-cyclohexyl-2-aminobutanoyl]]
MIC Streptococcus agalactiae (GC 4564) (Streptococcus sp.; Streptococcus agalactiae (GC 4564), broth dilution, 18 hours at 35° C.): 64 µg/mL (≈ 49 µM)
MIC Streptococcus pneumoniae (ATCC 6301) (Streptococcus sp.; Streptococcus pneumoniae (ATCC 6301), broth dilution, 18 hours at 35° C.): 64 µg/mL (≈ 49 µM)
MIC Streptococcus pneumoniae (GC 1894) (Streptococcus sp.; Streptococcus pneumoniae (GC 1894), broth dilution, 18 hours at 35° C.): 32 µg/mL (≈ 24.5 µM)
MIC Streptococcus pneumoniae (GC 4565) (Streptococcus sp.; Streptococcus pneumoniae (GC 4565), broth dilution, 18 hours at 35° C.): 64 µg/mL (≈ 49 µM)
MIC Streptococcus pyogenes (GC 4563) (Streptococcus sp.; Streptococcus pyogenes (GC 4563), broth dilution, 18 hours at 35° C.): 64 µg/mL (≈ 49 µM)
MIC Streptococcus agalactiae (GC 4564) (Streptococcus sp.; [2]): 64 µg/mL (≈ 49 µM)
MIC Streptococcus pneumoniae (ATCC 6301) (Streptococcus sp.; [2]): 64 µg/mL (≈ 49 µM)
MIC Streptococcus pneumoniae (GC 1894) (Streptococcus sp.; [2]): 32 µg/mL (≈ 24.5 µM)
MIC Streptococcus pneumoniae (GC 4565) (Streptococcus sp.; [2]): 64 µg/mL (≈ 49 µM)
MIC Streptococcus pyogenes (GC 4563) (Streptococcus sp.; [2]): 64 µg/mL (≈ 49 µM)

Compound: N=C1NCC(C(O)[C@@H]2NC(=O)[C@@H](CC3CCCCC3)NC(=O)[C@H](CC3CCCCC3)NC(=O)CNC(=O)[C@H](CO)NC(=O)[C@@H](C(O)C3CNC(=N)N3)NC2=O)N1 (some centres unmarked) [Example 58, Cyclo[3-cyclohexylalanyl-3-cyclohexylalanyl-3-(2-iminoimidazolidin-4-yl)seryl-3-(2-iminoimidazolidin-4-yl)-serylserylglycyl]] (cyclo([Cha][dCha][X4][X5]SG))
MIC Coagulase Negative Staphylococcus (GC 4547) (Staphylococcus sp.; [2]): 4 µg/mL (≈ 5.06 µM)
MIC Coagulase Negative Staphylococcus (GC 4548) (Staphylococcus sp.; [2]): 4 µg/mL (≈ 5.06 µM)
MIC Coagulase Negative Staphylococcus (GC 4549) (Staphylococcus sp.; [2]): 4 µg/mL (≈ 5.06 µM)
MIC Coagulase Negative Staphylococcus (GC 4551) (Staphylococcus sp.; [2]): 8 µg/mL (≈ 10.1 µM)
MIC Staphylococcus haemolyticus (GC 4546) (Staphylococcus sp.; [2]): 4 µg/mL (≈ 5.06 µM)
MIC Staphylococcus aureus (ATCC 29213) (Staphylococcus sp.; strain ATCC 29213, broth dilution, 18 hours at 35° C.): 16 µg/mL (≈ 20.2 µM)
MIC Staphylococcus aureus (GC 4542) (Staphylococcus sp.; strain GC 4542, broth dilution, 18 hours at 35° C.): 16 µg/mL (≈ 20.2 µM)
MIC Staphylococcus aureus (GC 4544) (Staphylococcus sp.; strain GC 4544, broth dilution, 18 hours at 35° C.): 16 µg/mL (≈ 20.2 µM)

The remaining lines, values ahead:

MIC Coagulase Negative Staphylococcus (GC 4549) (Staphylococcus sp.; strain GC 4549): 64 µg/mL (≈ 43 µM)
MIC Coagulase Negative Staphylococcus (GC 4549) (Staphylococcus sp.; [1]): 64 µg/mL (≈ 43 µM)
MIC Coagulase Negative Staphylococcus (ID-3941) (Staphylococcus sp.): 64 µg/mL (≈ 43 µM)
MIC Coagulase Negative Staphylococcus (ID-3941) (Staphylococcus sp.; [2]): 64 µg/mL (≈ 43 µM)
MIC Enterococcus faecium (GC 4557) (Enterococcus sp.; strain GC 4557): 32 µg/mL (≈ 21.5 µM)
MIC Streptococcus agalactiae (GC 4564) (Streptococcus sp.; strain GC 4564): 32 µg/mL (≈ 21.5 µM)
MIC Streptococcus pneumoniae (GC 4565) (Streptococcus sp.; strain GC 4565): 16 µg/mL (≈ 10.7 µM)
MIC Streptococcus pyogenes (ID-3187) (Streptococcus sp.; strain ID-3187): 32 µg/mL (≈ 21.5 µM)
Compound: CC(c1ccccc1)C1NC(=O)CNC(=O)C(COC(=O)C(c2ccccc2)c2ccccc2)NC(=O)C(C(O)C2CNC(=N)N2C2OC(CO)C(O)C(O)C2O)NC(=O)C(C(O)C2CNC(=N)N2)NC(=O)C(Cc2ccc(OC3OC(CO)C(OC4OC(CO)C(O)C(O)C4O)C(O)C3O)cc2)NC1=O (stereo not drawn) [Example 96a, Cyclo[glycyl-β-methylphenylalanyl-O-[4-O-hexopyranosylhexopyranosyl)tyrosyl-3-(2-iminoimidazolidin-4-yl)seryl-3-(3-hexopyranosyl-2-iminoimidazolidin-4-yl)seryl-O-(diphenylacetyl)-seryl]] (cyclo(G[ξPhe(βξ-Me)]Y(X2)[ξEnduracididine(βξ-OH,4'ξ)][X1]S(Diphenylacetyl)); configuration not given here)

MIC Coagulase Negative Staphylococcus (GC 6257) (Staphylococcus sp.; Coagulase Negative Staphylococcus (GC 6257), 18 hours at 35° C.): 12 to 32 µg/mL
MIC Streptococcus agalactiae (GC 4564) (Streptococcus sp.; Streptococcus agalactiae (GC 4564), 18 hours at 35° C.): 1 to 8 µg/mL
MIC Streptococcus pneumoniae (GC 1894) (Streptococcus sp.; Streptococcus pneumoniae (GC 1894), 18 hours at 35° C.): <0.06 to 2 µg/mL
MIC Streptococcus pneumoniae (GC 4565) (Streptococcus sp.; Streptococcus pneumoniae (GC 4565), 18 hours at 35° C.): 0.5 to 8 µg/mL
MIC Streptococcus pyogenes (GC 4563) (Streptococcus sp.; Streptococcus pyogenes (GC 4563), 18 hours at 35° C.): 1 to 8 µg/mL
MIC Streptococcus agalactiae (GC 4564) (Streptococcus sp.; [3]): 1 to 8 µg/mL
MIC Streptococcus pneumoniae (GC 1894) (Streptococcus sp.; [3]): <0.06 to 2 µg/mL
MIC Streptococcus pneumoniae (GC 4565) (Streptococcus sp.; [3]): 0.5 to 8 µg/mL
MIC Streptococcus pyogenes (GC 4563) (Streptococcus sp.; [3]): 1 to 8 µg/mL
Compound: CC(c1ccccc1)C1NC(=O)CNC(=O)C(CO)NC(=O)C(C(O)C2CNC(=N)N2C2OC(CO)C(O)C(O)C2O)NC(=O)C(C(O)C2CNC(=N)N2)NC(=O)C(Cc2ccc(OC3OC(CO)C(OC4OC(CO)C(O)C(O)C4OCc4ccc(OCc5ccccc5)cc4)C(O)C3O)cc2)NC1=O (stereo not drawn) [Example 231b, Cyclo[glycyl-β-methylphenylalanyl-O-[4-O-[2-O-[4-(phenylmethoxy)benzyl]hexopyranosyl]-hexopyranosyl]tyrosyl-3-(2-iminoimidazolidin-4-yl)seryl-3-(3-hexopyranosyl-2-iminoimidazolidin-4-yl)serylseryl]]
